Experimental data: ChEMBL document CHEMBL1208747, “Derivatives of tetrahydroisoquinoline: synthesis and initial evaluation of novel non-peptide antagonists of the alpha(IIb)beta(3)-integrin” (Bioorg Med Chem Lett, 2010)

Experiments:
[1] = Antagonist activity at FITC-tagged […] integrin in human platelet rich plasma
[2] = molecular target: T1, Integrin alpha-IIb/beta-3 (Homo sapiens, UniProt P05106+P08514); assay: Antagonist activity at FITC-tagged […] integrin in human platelet rich plasma; type: functional, cell-free
[3] = molecular target: T1, Integrin alpha-IIb/beta-3; assay: Antagonist activity at FITC-tagged alphaIIbbeta3 integrin in human platelet assessed as inhibition of FITC-fibrinogen binding on washed platelets

T1 sequence (P05106 27-788 limits assumed): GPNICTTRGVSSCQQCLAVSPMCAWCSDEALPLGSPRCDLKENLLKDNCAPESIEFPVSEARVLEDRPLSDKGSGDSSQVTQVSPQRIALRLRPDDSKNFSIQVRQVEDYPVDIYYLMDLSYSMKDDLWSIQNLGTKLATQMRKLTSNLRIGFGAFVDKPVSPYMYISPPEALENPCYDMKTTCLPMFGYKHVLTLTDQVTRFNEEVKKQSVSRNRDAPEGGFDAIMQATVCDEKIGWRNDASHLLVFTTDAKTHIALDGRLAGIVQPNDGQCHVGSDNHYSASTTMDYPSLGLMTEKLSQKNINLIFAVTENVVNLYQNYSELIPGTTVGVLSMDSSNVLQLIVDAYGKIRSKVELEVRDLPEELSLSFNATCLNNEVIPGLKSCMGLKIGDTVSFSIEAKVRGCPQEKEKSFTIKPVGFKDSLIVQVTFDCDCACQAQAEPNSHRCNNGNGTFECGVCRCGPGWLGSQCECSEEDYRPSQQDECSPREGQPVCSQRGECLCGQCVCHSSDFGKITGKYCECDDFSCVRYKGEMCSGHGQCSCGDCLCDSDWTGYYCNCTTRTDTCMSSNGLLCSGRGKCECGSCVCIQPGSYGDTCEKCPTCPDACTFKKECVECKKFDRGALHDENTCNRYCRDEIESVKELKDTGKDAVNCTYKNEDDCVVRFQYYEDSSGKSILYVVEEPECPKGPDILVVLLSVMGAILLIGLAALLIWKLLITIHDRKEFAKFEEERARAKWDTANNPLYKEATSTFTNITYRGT
T1 sequence (P08514 32-887 limits assumed): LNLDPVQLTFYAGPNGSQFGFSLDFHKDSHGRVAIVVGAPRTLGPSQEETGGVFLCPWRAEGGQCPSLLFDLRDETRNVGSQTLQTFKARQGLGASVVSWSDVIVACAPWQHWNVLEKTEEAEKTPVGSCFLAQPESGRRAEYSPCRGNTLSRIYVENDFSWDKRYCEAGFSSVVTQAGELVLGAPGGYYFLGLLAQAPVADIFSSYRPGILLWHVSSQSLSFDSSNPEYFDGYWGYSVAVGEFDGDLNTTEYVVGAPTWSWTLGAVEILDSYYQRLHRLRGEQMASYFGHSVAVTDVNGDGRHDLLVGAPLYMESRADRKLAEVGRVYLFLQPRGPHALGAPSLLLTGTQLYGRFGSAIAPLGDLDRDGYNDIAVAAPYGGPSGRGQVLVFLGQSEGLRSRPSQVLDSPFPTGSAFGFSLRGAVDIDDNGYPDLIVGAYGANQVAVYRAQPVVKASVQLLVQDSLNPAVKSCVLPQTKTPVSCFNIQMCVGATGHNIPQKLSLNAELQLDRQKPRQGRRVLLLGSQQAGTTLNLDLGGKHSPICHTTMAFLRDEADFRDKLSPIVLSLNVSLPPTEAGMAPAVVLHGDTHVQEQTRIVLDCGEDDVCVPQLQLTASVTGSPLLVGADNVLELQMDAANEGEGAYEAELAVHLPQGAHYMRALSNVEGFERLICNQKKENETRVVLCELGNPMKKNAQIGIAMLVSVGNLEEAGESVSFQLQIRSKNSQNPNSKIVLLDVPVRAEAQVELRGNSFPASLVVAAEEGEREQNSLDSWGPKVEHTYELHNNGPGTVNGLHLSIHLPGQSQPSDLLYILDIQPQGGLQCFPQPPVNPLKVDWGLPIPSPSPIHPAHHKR
T1 sequence (P08514 891-1039 limits assumed): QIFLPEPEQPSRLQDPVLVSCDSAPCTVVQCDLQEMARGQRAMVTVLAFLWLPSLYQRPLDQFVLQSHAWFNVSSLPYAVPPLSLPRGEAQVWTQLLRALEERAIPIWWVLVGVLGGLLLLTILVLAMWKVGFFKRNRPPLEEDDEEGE

IC50 [1] | IC50 [2] | IC50 [3] | Structure (SMILES)
860 nM |  |  | O=C(O)CC(NC(=O)CCC(=O)Nc1ccc2c(c1)CNC2)c1ccccc1 (centres undefined)
 | 96 nM | 0.9 nM | Cc1ccc(C(CC(=O)O)NC(=O)CCC(=O)Nc2ccc3c(c2)CNCC3)cc1 (centres undefined)
 | 310 nM | 3.5 nM | COc1ccc(C(CC(=O)O)NC(=O)CCC(=O)Nc2ccc3c(c2)CNCC3)cc1 (centres undefined)
 | 87 nM |  | CC(C)Oc1ccc(C(CC(=O)O)NC(=O)CCC(=O)Nc2ccc3c(c2)CNCC3)cc1 (centres undefined)
 | 64 nM | 0.63 nM | COc1ccc(C(CC(=O)O)NC(=O)CCC(=O)Nc2ccc3c(c2)CNCC3)cc1OC (centres undefined)
 | 510 nM |  | CCOc1ccc(C(CC(=O)O)NC(=O)CCC(=O)Nc2ccc3c(c2)CNCC3)cc1OC (centres undefined)
 | 90 nM | 0.4 nM | O=C(O)CC(NC(=O)CCC(=O)Nc1ccc2c(c1)CNCC2)c1ccc2c(c1)OCO2 (centres undefined)
 | 5200 nM |  | O=C(O)CC(NC(=O)CCC(=O)Nc1ccc2c(c1)CNCC2)c1cccc2ccccc12 (centres undefined)
 | 4200 nM | 18 nM | COc1ccc(C(CC(=O)O)NC(=O)CCCC(=O)Nc2ccc3c(c2)CNCC3)cc1 (centres undefined)
 | 127 nM | 5 nM | COc1ccc(C(CC(=O)O)NC(=O)CCCC(=O)Nc2ccc3c(c2)CNCC3)cc1OC (centres undefined)
 | 53 nM | 0.78 nM | O=C(O)CC(NC(=O)CCCC(=O)Nc1ccc2c(c1)CNCC2)c1ccc2c(c1)OCO2 (centres undefined)
 | 160 nM | 2.6 nM | COc1ccc(C(CC(=O)O)NC(=O)CCC(=O)Nc2ccc3c(c2)CNC3)cc1 (centres undefined)
 | 105 nM | 6 nM | CC(C)Oc1ccc(C(CC(=O)O)NC(=O)CCC(=O)Nc2ccc3c(c2)CNC3)cc1 (centres undefined)
 | 890 nM | 9 nM | COc1ccc(C(CC(=O)O)NC(=O)CCC(=O)Nc2ccc3c(c2)CNC3)cc1OC (centres undefined)
 | 31 nM | 0.22 nM | O=C(O)CC(NC(=O)CCC(=O)Nc1ccc2c(c1)CNC2)c1ccc2c(c1)OCO2 (centres undefined)
 | 30 nM | 1.21 nM | O=C(O)CCNC(=O)CCC(=O)Nc1ccc2c(c1)CNCC2
 | 13 nM | 1.01 nM | O=C(O)CC(NC(=O)CCC(=O)Nc1ccc2c(c1)CNCC2)c1ccccc1 (centres undefined)
 | 8.9 nM | 1 nM | O=C(O)CC(NC(=O)CCC(=O)Nc1ccc2c(c1)CNCC2)c1ccc(F)cc1 (centres undefined)
 | 10000 nM | 1100 nM | O=C(O)CC(NC(=O)CCC(=O)Nc1ccc2c(c1)CNCC2)c1cccc(F)c1 (centres undefined)
 | 570 nM | 5 nM | O=C(O)CC(NC(=O)CCC(=O)Nc1ccc2c(c1)CNCC2)c1ccccc1F (centres undefined)
 | 2000 nM | 65 nM | O=C(O)CC(NC(=O)CCC(=O)Nc1ccc2c(c1)CNCC2)c1ccc(Cl)cc1 (centres undefined)
 | 17 nM | 0.8 nM | COc1ccc(C(CC(=O)O)NC(=O)c2cccc(C(=O)Nc3ccc4c(c3)CNCC4)c2)cc1 (centres undefined)
 | 25 nM | 1 nM | O=C(O)CC(NC(=O)c1cccc(C(=O)Nc2ccc3c(c2)CNCC3)c1)c1ccccc1 (centres undefined)
 | 11.6 nM | 0.7 nM | COc1ccc(C(CC(=O)O)NC(=O)c2cccc(C(=O)Nc3ccc4c(c3)CNCC4)c2)cc1OC (centres undefined)
